Experimental data taken from the Kinase Knowledgebase extract (Sharma et al. 2016).

Biological target: PIK3CA (human) (UniProt P42336)
Assay: Assessment of PIK3CA Kinase Activity

Sequence of PIK3CA (human) (P42336 whole entry, looked up): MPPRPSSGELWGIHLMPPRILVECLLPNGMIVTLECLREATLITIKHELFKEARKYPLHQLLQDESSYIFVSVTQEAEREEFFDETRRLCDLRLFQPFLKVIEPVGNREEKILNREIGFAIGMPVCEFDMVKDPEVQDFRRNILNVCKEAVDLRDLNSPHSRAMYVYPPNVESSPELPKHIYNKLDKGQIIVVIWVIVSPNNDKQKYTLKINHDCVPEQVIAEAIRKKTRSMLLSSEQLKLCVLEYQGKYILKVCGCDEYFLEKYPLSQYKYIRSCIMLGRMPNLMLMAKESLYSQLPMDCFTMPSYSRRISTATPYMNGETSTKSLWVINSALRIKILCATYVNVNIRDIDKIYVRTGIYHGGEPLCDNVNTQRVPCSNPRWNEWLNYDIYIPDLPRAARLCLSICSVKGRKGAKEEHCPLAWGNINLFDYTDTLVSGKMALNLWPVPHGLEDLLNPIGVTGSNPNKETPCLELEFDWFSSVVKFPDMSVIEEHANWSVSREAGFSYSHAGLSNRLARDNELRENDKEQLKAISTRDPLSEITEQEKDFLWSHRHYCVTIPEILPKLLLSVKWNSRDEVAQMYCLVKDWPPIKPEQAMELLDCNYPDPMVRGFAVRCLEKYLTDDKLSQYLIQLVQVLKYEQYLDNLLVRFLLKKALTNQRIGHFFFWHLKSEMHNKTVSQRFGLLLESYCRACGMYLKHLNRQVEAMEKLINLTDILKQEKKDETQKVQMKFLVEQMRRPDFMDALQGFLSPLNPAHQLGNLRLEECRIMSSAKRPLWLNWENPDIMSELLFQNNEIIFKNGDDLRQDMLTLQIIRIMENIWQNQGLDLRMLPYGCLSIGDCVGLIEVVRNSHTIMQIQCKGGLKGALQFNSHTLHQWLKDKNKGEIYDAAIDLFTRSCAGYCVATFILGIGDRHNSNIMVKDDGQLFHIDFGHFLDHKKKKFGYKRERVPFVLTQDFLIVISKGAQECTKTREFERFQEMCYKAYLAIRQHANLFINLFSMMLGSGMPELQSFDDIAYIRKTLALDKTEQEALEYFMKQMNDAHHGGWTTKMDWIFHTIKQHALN

Row | IC50 [µM] | SMILES
1 | < 1 | CC(C)n1ncnc1-c1nc2c(s1)CCOc1cc(C3CCN(CCS(C)(=O)=O)CC3)ccc1-2
2 | < 1 | CNC(=O)c1ccc2c(c1)OCCc1cc(C(=O)N(C)c3cc(C(=O)NC[C@H](C)O)ccc3Cl)sc1-2
3 | < 1 | CC(C)n1ncnc1-c1nc2c(s1)CCOc1ccc(-c3ccn(C(C)C)c(=O)c3)cc1-2
4 | < 1 | C[C@@H]1CN(c2ccc3c(n2)-c2sc(-c4ncnn4-c4ccc(F)cc4F)cc2CCO3)C[C@H](C)N1C
5 | < 1 | COc1cncc(-c2ccc3c(c2)-c2nc(-c4ncnn4C(C)C)sc2CCO3)c1
6 | < 1 | CN(CCc1ccccn1)C(=O)c1nc2c(s1)CCOc1cc(-c3cn[nH]c3)ccc1-2
7 | < 1 | CC(C)N1CCN(c2ccc3c(n2)-c2sc(-c4ncnn4-c4ccc(F)cc4F)cc2CCO3)CC1
8 | < 1 | CN(C[C@H]1Cc2ccccc2O1)C(=O)c1nc2c(s1)CCOc1cc(-c3cn[nH]c3)ccc1-2
9 | < 1 | Cc1nc(-c2nc3c(s2)CCOc2cc(-c4cnn(C5CN(CCO)C5)c4)ccc2-3)n(C(C)C)n1
10 | < 1 | O=C(O)Cn1cc(-c2ccc3c(c2)OCCc2sc(-c4ncnn4CC(F)(F)F)nc2-3)cn1
11 | < 1 | Fc1ccc(-n2ncnc2-c2cc3c(s2)-c2nc(NC4CCOCC4)ccc2OCC3)c(F)c1
12 | < 1 | COCC(O)Cn1cc(-c2ccc3c(c2)OCCc2sc(-c4nc(C)nn4C(C)C)nc2-3)cn1 (stereo unspecified)
13 | < 1 | OCCNc1ccc2c(n1)-c1sc(-c3ncnn3-c3ccc(F)cc3F)cc1CCO2
14 | < 1 | Fc1ccc(-n2ncnc2-c2cc3c(s2)-c2nc(NCCc4ccccc4)ccc2OCC3)c(F)c1
15 | < 1 | CC(C)n1ncnc1-c1nc2c(s1)CCOc1ccc(-c3cc[nH]c(=O)c3)cc1-2
16 | < 1 | C[C@@H]1CN(C2CCN(C(=O)c3nc4c(s3)CCOc3cc(-c5cn[nH]c5)ccc3-4)CC2)C[C@@H](C)O1
17 | < 1 | COCCNCc1ccc2c(c1)OCCc1sc(-c3nncn3C(C)C)nc1-2
18 | < 1 | CC(C)n1ncnc1-c1nc2c(s1)CCOc1cc(-c3cnc(CO)n3C)ccc1-2
19 | < 1 | Cc1nc(-c2nc3c(s2)CCOc2cc(C4CN(CCF)C4)ccc2-3)n(C(C)C)n1
20 | < 1 | NCCn1cc(-c2ccc3c(c2)OCCc2sc(-c4ncnn4CC(F)(F)F)nc2-3)cn1
21 | < 1 | CN(CCO)c1ccc2c(n1)-c1sc(-c3ncnn3-c3ccc(F)cc3F)cc1CCO2
22 | < 1 | CC1CN(C(=O)c2nc3c(s2)CCOc2cc(-c4cn[nH]c4)ccc2-3)CCN1 (stereo unspecified)
23 | < 1 | CN1CCN(c2ccc3c(n2)-c2sc(-c4ncnn4-c4ccc(F)cc4F)cc2CCO3)CC1

Row | IC50 [µM] | SMILES
24 | < 1 | CCN1[C@H](C)CN(c2ccc3c(n2)-c2sc(-c4ncnn4-c4ccc(F)cc4F)cc2CCO3)C[C@@H]1C
25 | < 1 | Fc1ccc(-n2ncnc2-c2cc3c(s2)-c2nc(NCCN4CCOCC4)ccc2OCC3)c(F)c1
26 | < 1 | CC(C)(O)Cn1cc(-c2ccc3c(c2)OCCc2sc(-c4nc(N)nn4-c4ccc(F)cc4F)nc2-3)cn1
27 | < 1 | CN(C)c1ccc(-c2ccc3c(n2)-c2sc(-c4ncnn4-c4ccc(F)cc4F)cc2CCO3)cn1
28 | < 1 | CC(=O)N1CC(n2ccnc2-c2nc3c(s2)CCOc2cc(-c4cnn(CC(C)(C)O)c4)ccc2-3)C1
29 | < 1 | CC(C)n1ncnc1-c1nc2c(s1)CCOc1ccc(C3CN(S(=O)(=O)CCO)C3)cc1-2
30 | < 1 | O=C(c1nc2c(s1)CCOc1cc(-c3cn[nH]c3)ccc1-2)N1CCC[C@@H](C(F)(F)F)C1
31 | < 1 | CN1CCC(CNc2ccc3c(n2)-c2sc(-c4ncnn4-c4ccc(F)cc4F)cc2CCO3)CC1
32 | < 1 | CN1CCN(CCNc2ccc3c(n2)-c2sc(-c4ncnn4-c4ccc(F)cc4F)cc2CCO3)CC1
33 | < 1 | C[C@@H]1CCCN(C(=O)c2nc3c(s2)CCOc2cc(-c4cn[nH]c4)ccc2-3)C1
34 | < 1 | Fc1ccc(-n2ncnc2-c2cc3c(s2)-c2nc(NC4CNC4)ccc2OCC3)c(F)c1
35 | < 1 | CC(O)C(=O)N1CC(n2cc(-c3ccc4c(c3)OCCc3sc(-c5ncnn5C(C)C)nc3-4)cn2)C1 (stereo unspecified)
36 | < 1 | CN(C)C(=O)N1CCN(C(=O)c2nc3c(s2)CCOc2cc(-c4cn[nH]c4)ccc2-3)CC1
37 | < 1 | CC(C)(O)Cn1cc(-c2ccc3c(c2)OCCc2sc(-c4nccn4CC(F)(F)F)nc2-3)cn1
38 | < 1 | CC(C)n1ncnc1-c1nc2c(s1)CCOc1cc(-c3cccnc3F)ccc1-2
39 | < 1 | CC(C)n1ncnc1-c1nc2c(s1)CCOc1ccc(-c3cccn(CC(=O)O)c3=O)cc1-2
40 | < 1 | CC(C)n1ncnc1-c1nc2c(s1)CCOc1cc(C3CCN(S(C)(=O)=O)CC3)ccc1-2
41 | < 1 | Cc1nc(-c2nc3c(s2)CCOc2cc([C@@H]4CCCNC4)ccc2-3)n(C(C)C)n1
42 | < 1 | CC(C)n1cnnc1-c1nc2c(s1)CCOc1cc(CNCC(F)(F)F)ccc1-2
43 | < 1 | N#CC1CCN(C(=O)c2nc3c(s2)CCOc2cc(-c4cn[nH]c4)ccc2-3)CC1
44 | < 1 | CC(C)n1ncnc1-c1nc2c(s1)CCOc1cc(C3CN(C(=O)[C@H](C)O)C3)ccc1-2
45 | < 1 | CC(=O)N1CCC(Nc2ccc3c(n2)-c2sc(-c4ncnn4-c4ccc(F)cc4F)cc2CCO3)CC1
46 | < 1 | C[C@@H]1CN(c2ccc3c(n2)-c2sc(-c4ncnn4-c4ccc(F)cc4F)cc2CCO3)C[C@H](C)N1C(=O)C(F)(F)F
